Data as given in patent US20250188092A1, “RIFAMYCIN ANALOGS” (THE REGENTS OF THE UNIVERSITY OF MICHIGAN, priority 2021, published 2025).
In brackets after ≈: the same amount, converted by molar mass.

Legend:
[1] = test system: non-replicating cultures of M. tuberculosis H37Rv transformed with lux ABCDE; assay: microbe, parasite or virus in culture; assay type: cell-based, Mycobacterium tuberculosis; conditions: for MIC90 / MIC: Mycobacterium tuberculosis, H37RV, ≥90% reduction in luminescence, read-out: MIC90 LORA; for MIC90 LORA/MABA: ratio of LORA MIC90 to MABA MIC90
[2] = test system: M. tuberculosis transformed with luxABCDE; assay: microbe, parasite or virus in culture; assay type: cell-based, Mycobacterium tuberculosis; conditions: for MBC: Mycobacterium tuberculosis, 168 h, ≥99% reduction in luminescence, read-out: MBC99 Day 7 (Lux Assay) MBC

SMILES	MIC90 LORA Rel to RMP [1]	MIC90 [1] [µM]	MIC90 LORA/MABA [1]	MBC [2] [µM]	MBC99 Day 7 (Lux Assay) MBC Rel to RMP [2]	MIC [1] [µM]
CO[C@H]1/C=C/O[C@@]2(C)Oc3c(C)c(O)c4c(=O)c(c5oc6cc(N7CCC(C(=O)O)CC7)cc(C)c6nc-5c4c3C2=O)NC(=O)/C(C)=C\C=C\[C@H](C)[C@H](O)[C@@H](C)[C@@H](O)[C@@H](C)[C@H](OC(C)=O)[C@@H]1C [Compound 29f, 1-[(7S,9E,11S,12R,13S,14R,15R,16R,17S,18S,19E,21Z)-13-(acetyloxy)-2,15,17-trihydroxy-11-methoxy-3,7,12,14,16,18,22,32-octamethyl-6,23,37-trioxo-8,27,38-trioxa-24,34-diazahexacyclo-[23.11.1.1^4,7.0^5,36.0^26,35.0^28,33]octatriaconta-1,3,5(36)9,19,21,25,28,30,32,34-undecaen-30-yl]piperidine-4-carboxylic acid]	40	1.07 (≈ 0.987 µg/mL)	4.5	> 0.1	–	–
CO[C@H]1/C=C/O[C@@]2(C)Oc3c(C)c(O)c4c(=O)c(c5oc6cc(N7CCN(C(=O)c8ccc9occc9c8)CC7)cc(OCc7ccc(CN8CCOCC8)cc7)c6nc-5c4c3C2=O)NC(=O)/C(C)=C\C=C\[C@H](C)[C@H](O)[C@@H](C)[C@@H](O)[C@@H](C)[C@H](OC(C)=O)[C@@H]1C [Compound 17s, (7S,9E,11S,12R,13S,14R,15R,16R,17S,18S,19E,21Z)-30-{4-[(1-benzofuran-5-yl)carbonyl]piperazin-1-yl}-2,15,17-trihydroxy-11-methoxy-3,7,12,14,16,18,22-heptamethyl-32-{[4-(morpholin-4-ylmethyl)phenyl]methoxy}-6,23,37-trioxo-8,27,38-trioxa-24,34-diazahexacyclo[23.11.1.1^4,7.0^5,36.0^26,35.0^28,33]octatriaconta-1,3,5(36)9,19,21,25,28,30,32,34-undecaen-13-yl acetate]	0.60	0.03	1.7	0.084	0.19	–
CO[C@H]1/C=C/O[C@@]2(C)Oc3c(C)c(O)c4c(=O)c(c5oc6cc(N7CCN(C(=O)C(C)(C)C)CC7)cc(OCc7ccc(CN8CCOCC8)cc7)c6nc-5c4c3C2=O)NC(=O)/C(C)=C\C=C\[C@H](C)[C@H](O)[C@@H](C)[C@@H](O)[C@@H](C)[C@H](OC(C)=O)[C@@H]1C [Compound 17f, (7S,9E,11S,12R,13S,14R,15R,16R,17S,18S,19E,21Z)-30-[4-(2,2-Dimethylpropanoyl)-piperazin-1-yl]-2,15,17-trihydroxy-11-methoxy-3,7,12,14,16,18,22-heptamethyl-32-({4-[(morpholin-4-yl)methyl]phenyl}methoxy)-6,23,37-trioxo-8,27,38-trioxa-24,34-diazahexacyclo[23.11.1.1^4,7.0^5,36.0^26,35.0^28,33]octatriaconta-1(36)2,4,9,19,21,25,28,30,32,34-undecaen-13-yl acetate]	1.8	–	14	> 0.1	–	0.369
CO[C@H]1/C=C/O[C@@]2(C)Oc3c(C)c(O)c4c(=O)c(c5oc6cc(N7CCN(CC(C)C)CC7)cc(O)c6nc-5c4c3C2=O)NC(=O)/C(C)=C\C=C\[C@H](C)[C@H](O)[C@@H](C)[C@@H](O)[C@@H](C)[C@H](OC(C)=O)[C@@H]1C [RLZ, rifalazil, reference compound]	0.01	0.0022 (≈ 0.00207 µg/mL)	2.0	0.03 (≈ 0.0282 µg/mL)	0.07	–
CO[C@H]1/C=C/O[C@@]2(C)Oc3c(C)c(O)c4c(=O)c(c5oc6cc(N7CCN(CC(C)C)CC7)cc(OCc7cccc(CN8CCN(C(=O)Cn9ccnc9)CC8)c7)c6nc-5c4c3C2=O)NC(=O)/C(C)=C\C=C\[C@H](C)[C@H](O)[C@@H](C)[C@@H](O)[C@@H](C)[C@H](OC(C)=O)[C@@H]1C [Compound 12c, (7S,9E,11S,12R,13S,14R,15R,16R,17S,18S,19E,21Z)-2,15,17-Trihydroxy-32-{[3-({4-[2-(1H-imidazol-1-yl)acetyl]piperazin-1-yl}methyl)phenyl]methoxy}-11-methoxy-3,7,12,14,16,18,22-heptamethyl-30-[4-(2-methylpropyl)piperazin-1-yl]-6,23,37-trioxo-8,27,38-trioxa-24,34-diazahexacyclo[23.11.1.1^4,7.0^5,36.0^26,35.0^28,33]octatriaconta-1(36)2,4,9,19,21,25,28,30,32,34-undecaen-13-yl acetate]	0.11	–	–	0.037	0.08	< 0.016
COC(=O)N1CCN(c2cc(C)c3nc4c5c6c7c(C)c(O)c5c(=O)c(c-4oc3c2)NC(=O)/C(C)=C\C=C\[C@H](C)[C@H](O)[C@@H](C)[C@@H](O)[C@@H](C)[C@H](OC(C)=O)[C@H](C)[C@@H](OC)/C=C/O[C@@](C)(O7)C6=O)CC1 [Compound 26g, Methyl 4-[(7S,9E,11S,12R,13S,14R,15R,16R,17S,18S,19E,21Z)-13-(acetyloxy)-2,15,17-trihydroxy-11-methoxy-3,7,12,14,16,18,22,32-octamethyl-6,23,37-trioxo-8,27,38-trioxa-24,34-diazahexacyclo[23.11.1.1^4,7.0^5,36.0^26,35.0^28,33]octatriaconta-1(36)2,4,9,19,21,25,28,30,32,34-undecaen-30-yl]piperazine-1-carboxylate]	0.05	0.0096 (≈ 0.00903 µg/mL)	1.9	0.043 (≈ 0.0405 µg/mL)	0.09	–
CCC(=O)N1CCN(c2cc(C)c3nc4c5c6c7c(C)c(O)c5c(=O)c(c-4oc3c2)NC(=O)/C(C)=C\C=C\[C@H](C)[C@H](O)[C@@H](C)[C@@H](O)[C@@H](C)[C@H](OC(C)=O)[C@H](C)[C@@H](OC)/C=C/O[C@@](C)(O7)C6=O)CC1 [Compound 26e, (7S,9E,11S,12R,13S,14R,15R,16R,17S,18S,19E,21Z)-2,15,17-Trihydroxy-11-methoxy-3,7,12,14,16,18,22,32-octamethyl-6,23,37-trioxo-30-(4-propanoylpiperazin-1-yl)-8,27,38-trioxa-24,34-diazahexacyclo[23.11.1.1^4,7.0^5,36.0^26,35.0^28,33]octatriaconta-1(36)2,4,9,19,21,25,28,30,32,34-undecaen-13-yl acetate]	–	> 0.02	–	0.087	0.19	–
CO[C@H]1/C=C/O[C@@]2(C)Oc3c(C)c(O)c4c(=O)c(c5oc6cc(N7CCC(C(=O)O)CC7)cc(OCc7ccc(CN8CCOCC8)cc7)c6nc-5c4c3C2=O)NC(=O)/C(C)=C\C=C\[C@H](C)[C@H](O)[C@@H](C)[C@@H](O)[C@@H](C)[C@H](OC(C)=O)[C@@H]1C [Compound 17k]	–	–	–	> 0.1	–	> 0.02
CO[C@H]1/C=C/O[C@@]2(C)Oc3c(C)c(O)c4c(=O)c(c5oc6cc(N7CCN(CC(C)C)CC7)cc(OCc7ccc(CN8CCN(C)CC8)cc7)c6nc-5c4c3C2=O)NC(=O)/C(C)=C\C=C\[C@H](C)[C@H](O)[C@@H](C)[C@@H](O)[C@@H](C)[C@H](OC(C)=O)[C@@H]1C [Compound 17p, (7S,9E,11S,12R,13S,14R,15R,16R,17S,18S,19E,21Z)-2,15,17-trihydroxy-11-methoxy-3,7,12,14,16,18,22-heptamethyl-32-({4-[(4-methylpiperazin-1-yl)methyl]phenyl}methoxy)-30-[4-(2-methylpropyl)piperazin-1-yl]-6,23,37-trioxo-8,27,38-trioxa-24,34-diazahexacyclo-[23.11.1.1^4,7.0^5,36.0^26,35.0^28,33]octatriaconta-1,3,5(36)9,19,21,25,28,30,32,34-undecaen-13-yl acetate]	–	0.035	3.7	0.092	0.20	–
CO[C@H]1/C=C/O[C@@]2(C)Oc3c(C)c(O)c4c(=O)c(c5oc6cccc(OCc7cccc(CN8CCN(C(=O)CN9CCOCC9)CC8)c7)c6nc-5c4c3C2=O)NC(=O)/C(C)=C\C=C\[C@H](C)[C@H](O)[C@@H](C)[C@@H](O)[C@@H](C)[C@H](OC(C)=O)[C@@H]1C [Compound 11f, (7S,9E,11S,12R,13S,14R,15R,16R,17S,1S,19E,21Z)-2,15,17-Trihydroxy-11-methoxy-3,7,12,14,16,18,22-heptamethyl-32-{[3-({4-[2-(morpholin-4-yl)acetyl]piperazin-1-yl}methyl)phenyl]methoxy}-6,23,37-trioxo-8,27,38-trioxa-24,34-diazahexacyclo[23.11.1.1^4,7.0^5,36.0^26,35.0^28,33]octatriaconta-1(36)2,4,9,19,21,25,28,30,32,34-undecaen-13-yl acetate]	0.39	0.37	15	0.084	0.11	–
CO[C@H]1/C=C/O[C@@]2(C)Oc3c(C)c(O)c4c(=O)c(c5oc6cc(C)cc(N7CCN(C(=O)c8cccc(-n9ccnc9)c8)CC7)c6nc-5c4c3C2=O)NC(=O)/C(C)=C\C=C\[C@H](C)[C@H](O)[C@@H](C)[C@@H](O)[C@@H](C)[C@H](OC(C)=O)[C@@H]1C [Compound 30f, (7S,9E,11S,12R,13S,14R,15R,16R,17S,18S,19E,21Z)-2,15,17-Trihydroxy-32-{4-[3-(1H-imidazol-1-yl)benzoyl]piperazin-1-yl}-11-methoxy-3,7,12,14,16,18,22,30-octamethyl-6,23,37-trioxo-8,27,38-trioxa-24,34-diazahexacyclo[23.11.1.1^4,7.0^5,36.0^26,35.0^28,33]octatriaconta-1(36)2,4,9,19,21,25,28,30,32,34-undecaen-13-yl acetate]	0.57	0.117	2.7	0.11	0.24	–
